# From publication PMC6256002 (British Journal of Clinical Pharmacology, 2018)
# Where two headings read alike, the source gives them in different places. Marks after values point to notes of the source that are not given here.
# Assays:
# [1] = Effect of renal impairment; details: for AUC0–24 h / Ae0–24 h (amount excreted in the urine over 24 h) / CLR (renal clearance) / t½,λz (apparent terminal half-life) / R (metabolite-to-parent ratio, AUC0–24 h) / tmax / AUC(0-t) / CL renal / half-life: 100 mg QD; for AUC0–24 h / Ae0–24 h (amount excreted in the urine over 24 h) / CLR (renal clearance) / t½,λz (apparent terminal half-life) / Cmax / AUC(0-t) / CL renal / half-life: arithmetic mean (CV%); for R (metabolite-to-parent ratio, AUC0–24 h): geometric mean (CV%); for tmax: median (min–max); for Cmax: filgotinib 100 mg QD 10 days, tablet, fasted; for CLR lower (drop) compared with subjects with normal renal function: severe RI vs normal renal function; for AUC(0-t): AUC0–24 h; for CL renal: CLR (renal clearance); for half-life: t½,λz (apparent terminal half-life)
# JAK1 = details: cited from earlier work
# [2] = cited from earlier work; for Fraction excreted in the urine: in humans, filgotinib unchanged, metabolite as such
# [3] = for AUC0–24 h / Ae0–24 h (amount excreted in the urine over 24 h) / CLR (renal clearance) / t½,λz (apparent terminal half-life) / Cmax / AUC(0-t) / CL renal / half-life: arithmetic mean (CV%); for R (metabolite-to-parent ratio, AUC0–24 h): geometric mean (CV%); for Cmax: filgotinib 100 mg QD 10 days, capsule, fed, N = 10; for Time to steady state: predose (trough) concentrations, regardless of the age group; for AUC(0-t): AUC0–24 h; for CL renal: CLR (renal clearance); for half-life: t½,λz (apparent terminal half-life)
# [4] = filgotinib 100 mg QD for 10 days
# [5] = 100 mg QD, day 10, age 40–50 years
# [6] = 100 mg QD, day 10, age 65–74 years
# [7] = 100 mg QD, day 10, age 65–74 years, median (min–max)
# [8] = 100 mg QD, day 10, age ≥75 years
# [9] = 100 mg QD, day 10, age ≥75 years, median (min–max)
# [10] = ≥75 years relative to 40–50 years, point estimate [90% CI]
# [11] = both, human, in vivo, 100 mg, day 10, mild RI
# [12] = both, human, in vivo, 100 mg, day 10, moderate RI
# [13] = both, human, in vivo, 100 mg, day 10, normal renal function
# [14] = both, human, in vivo, 100 mg, day 10, severe RI
# [15] = both, human, in vivo, 100 mg, 100 mg QD, day 10, age 40–50 years
# [16] = both, human, in vivo, 100 mg, 100 mg QD, day 10, age 65–74 years
# [17] = both, human, in vivo, 100 mg, 100 mg QD, day 10, age ≥75 years
smiles,measurement,setting,value
Nc1nc2cccc(-c3ccc(CN4CCS(=O)(=O)CC4)cc3)n2n1 [Metabolite],AUC0–24 h,"[1]; day 10, mild RI",30.1 (29.3) μg.h ml^–1
same,Ae0–24 h (amount excreted in the urine over 24 h),"[1]; day 10, mild RI",35.7 (40.3) % dose
same,CLR (renal clearance),"[1]; day 10, mild RI",1.21 (42.1) l h^–1
same,"t½,λz (apparent terminal half-life)","[1]; day 10, mild RI",25.4 (24.8) h
same,"R (metabolite-to-parent ratio, AUC0–24 h)","[1]; day 10, mild RI",15.9 (22.0)
same,tmax,"[1]; day 10, mild RI",3.3 (1.5–5) h
same,AUC0–24 h,"[1]; day 10, moderate RI",42.7 (38.4) μg.h ml^–1
same,Ae0–24 h (amount excreted in the urine over 24 h),"[1]; day 10, moderate RI",29.9 (24.1) % dose
same,CLR (renal clearance),"[1]; day 10, moderate RI",0.781 (47.8) l h^–1
same,"t½,λz (apparent terminal half-life)","[1]; day 10, moderate RI",31.7 (24.9) h
same,"R (metabolite-to-parent ratio, AUC0–24 h)","[1]; day 10, moderate RI",16.7 (35.8)
same,tmax,"[1]; day 10, moderate RI",2.3 (0.5–5) h
same,AUC0–24 h,"[1]; day 10, normal renal function",24.9 (31.7) μg.h ml^–1
same,Ae0–24 h (amount excreted in the urine over 24 h),"[1]; day 10, normal renal function",37.4 (11.6) % dose
same,CLR (renal clearance),"[1]; day 10, normal renal function",1.59 (24.5) l h^–1
same,"t½,λz (apparent terminal half-life)","[1]; day 10, normal renal function",20.8 (17.1) h
same,"R (metabolite-to-parent ratio, AUC0–24 h)","[1]; day 10, normal renal function",13.8 (21.5)
same,tmax,"[1]; day 10, normal renal function",3 (2–4) h
same,AUC0–24 h,"[1]; day 10, severe RI",66.6 (18.5) μg.h ml^–1
same,Ae0–24 h (amount excreted in the urine over 24 h),"[1]; day 10, severe RI",32.1 (9.36) % dose
same,CLR (renal clearance),"[1]; day 10, severe RI",0.488 (10.6) l h^–1
same,"t½,λz (apparent terminal half-life)","[1]; day 10, severe RI",43.6 (12.6) h
same,"R (metabolite-to-parent ratio, AUC0–24 h)","[1]; day 10, severe RI",26.0 (20.4)
same,tmax,"[1]; day 10, severe RI",3 (3–4) h
same,Cmax,"[1]; day 10, mild RI, N = 6",1.54 (31.3) μg ml^–1
same,Cmax,"[1]; day 10, moderate RI, N = 6",2.35 (35.4) μg ml^–1
same,Cmax,"[1]; day 10, normal renal function, N = 9",1.63 (31.9) μg ml^–1
same,Cmax,"[1]; day 10, severe RI, N = 3",3.43 (14.6) μg ml^–1
same,CLR drop compared with subjects with normal renal function,[1]; moderate RI vs normal renal function,51%
same,Steady-state plasma concentrations reached,[1]; moderate and severe RI,5 days
same,Steady-state plasma concentrations reached,[1]; normal renal function and mild RI,3 days
same,CLR lower (drop) compared with subjects with normal renal function,[1],69%
same,Reduced potency versus filgotinib,JAK1; human whole-blood assay,19 fold
same,Fraction excreted in the urine,[2]; no reference given,≥ 50%
same,AUC0–24 h,[3]; [5],29.4 (27.3) μg.h ml^–1
same,Ae0–24 h (amount excreted in the urine over 24 h),[3]; [5],34.3 (22.3) ^b % dose
same,CLR (renal clearance),[3]; [5],1.25 (19.3) ^b l h^–1
same,"t½,λz (apparent terminal half-life)",[3]; [5],17.8 (17.9) h
same,Ae0–24 h (amount excreted in the urine over 24 h),"[3]; 100 mg QD, day 10, age 40–50 years, listed as metabolite",34.3 % dose
same,"R (metabolite-to-parent ratio, AUC0–24 h)",[3]; [5],18.8 (25.1)
same,tmax,"[3]; 100 mg QD, day 10, age 40–50 years, median (min–max)",4.0 (2.0–5.0) h
same,AUC0–24 h,[3]; [6],34.2 (17.3) μg.h ml^–1
same,Ae0–24 h (amount excreted in the urine over 24 h),[3]; [6],37.4 (13.2) ^c % dose
same,CLR (renal clearance),[3]; [6],1.13 (20.9) ^c l h^–1
same,"t½,λz (apparent terminal half-life)",[3]; [6],24.7 (23.3) h
same,"R (metabolite-to-parent ratio, AUC0–24 h)",[3]; [6],19.4 (22.0)
same,tmax,[3]; [7],3.0 (3.0–5.0) h
same,AUC0–24 h,[3]; [8],40.9 (21.9) μg.h ml^–1
same,Ae0–24 h (amount excreted in the urine over 24 h),[3]; [8],37.6 (15.4) ^b % dose
same,CLR (renal clearance),[3]; [8],0.926 (29.5) ^b l h^–1
same,"t½,λz (apparent terminal half-life)",[3]; [8],23.5 (21.2) h
same,Ae0–24 h (amount excreted in the urine over 24 h),"[3]; 100 mg QD, day 10, age ≥75 years, listed as metabolite",37.6 % dose
same,"R (metabolite-to-parent ratio, AUC0–24 h)",[3]; [8],18.4 (16.4)
same,tmax,[3]; [9],5.0 (3.0–5.0) h
same,Cmax,"[3]; day 10, age 40–50 years",1.69 (26.5) μg ml^–1
same,Cmax,"[3]; day 10, age 65–74 years",1.90 (15.5) μg ml^–1
same,Cmax,"[3]; day 10, age ≥75 years",2.20 (19.4) μg ml^–1
same,Apparent elimination half-life across age groups,[3]; mean over the three age groups,approximately 22 h
same,Time to steady state,[3],≤ 4 dosing days
same,Fold-change in steady-state AUC0–24 h,[3]; [10],1.33 fold
same,Fold-change in steady-state Cmax,[3]; [10],1.25 fold
O=C(Nc1nc2cccc(-c3ccc(CN4CCS(=O)(=O)CC4)cc3)n2n1)C1CC1 [Filgotinib],Ae0–24 h (amount excreted in the urine over 24 h),"[1]; day 10, mild RI",5.37 (42.1) % dose
same,Ae0–24 h (amount excreted in the urine over 24 h),"[1]; day 10, moderate RI",4.34 (51.2) % dose
same,Ae0–24 h (amount excreted in the urine over 24 h),"[1]; day 10, normal renal function",7.61 (35.4) % dose
same,Ae0–24 h (amount excreted in the urine over 24 h),"[1]; day 10, severe RI",2.08 (34) % dose
same,Steady state in plasma reached by,[1]; all renal function groups,≤ 2 days
same,AUC(0-t),[1]; [11],1890 ng·h/mL
same,AUC(0-t),[1]; [12],2690 ng·h/mL
same,AUC(0-t),[1]; [13],1820 ng·h/mL
same,AUC(0-t),[1]; [14],2640 ng·h/mL
same,CL renal,[1]; [11],49.2 mL/min
same,CL renal,[1]; [12],31.5 mL/min
same,CL renal,[1]; [13],74.2 mL/min
same,CL renal,[1]; [14],15 mL/min
same,tmax,"[1]; both, human, in vivo, 100 mg, tmax, day 10, moderate RI",0.6 h
same,tmax,"[1]; both, human, in vivo, 100 mg, tmax, day 10, normal renal function",0.8 h
same,half-life,[1]; [12],10.6 h
same,half-life,[1]; [13],5.42 h
same,half-life,[1]; [14],9.03 h
same,Time after dosing at which Cmax was reached,[1]; day 10,1 h
same,CLR lower (drop) compared with subjects with normal renal function,[1],80%
same,Safety and tolerability,[4],generally safe and well tolerated
same,Selectivity for JAK1 over JAK2,JAK1; in human whole blood,30 times
same,Impact of food on bioavailability,[2],no impact
same,Fraction excreted in the urine,[2]; no reference given,< 10%
same,Eliminated in urine (filgotinib and its metabolites),[2]; no reference given,> 80%
same,Ae0–24 h (amount excreted in the urine over 24 h),[3]; [5],8.01 (26.5) ^b % dose
same,Ae0–24 h (amount excreted in the urine over 24 h),"[3]; 100 mg QD, day 10, age 40–50 years, listed as filgotinib",8.01 % dose
same,Ae0–24 h (amount excreted in the urine over 24 h),[3]; [6],6.55 (14.3) ^c % dose
same,Ae0–24 h (amount excreted in the urine over 24 h),"[3]; 100 mg QD, day 10, age 65–74 years, listed as filgotinib",6.55 % dose
same,tmax,[3]; [7],2.0 (0.5–3.0) h
same,Ae0–24 h (amount excreted in the urine over 24 h),[3]; [8],7.24 (16.9) ^b % dose
same,Ae0–24 h (amount excreted in the urine over 24 h),"[3]; 100 mg QD, day 10, age ≥75 years, listed as filgotinib",7.24 % dose
same,tmax,[3]; [9],2.0 (0.5–3.0) h
same,tmax,"[3]; both, human, in vivo, 100 mg",2 h
same,AUC(0-t),[3]; [15],1600 ng·h/mL
same,AUC(0-t),[3]; [16],1790 ng·h/mL
same,AUC(0-t),[3]; [17],2220 ng·h/mL
same,CL renal,[3]; [15],92.5 mL/min
same,CL renal,[3]; [16],65 mL/min
same,CL renal,[3]; [17],55.5 mL/min
same,half-life,[3]; [15],6.07 h
same,half-life,[3]; [16],5.83 h
same,half-life,[3]; [17],6.9 h
same,Time to steady state,[3],steady state by the second dosing day
same,Fold-change in steady-state AUC0–24 h,[3]; [10],1.40 fold
